In ChEMBL document CHEMBL1201862, “PubChem BioAssay data set” (2004):
Calls of active or inactive are those of the source.

Experiments:
[1] = MC4R antagonists, dose response, counter-screen for LGR2 antagonist project, cell-based, plate reader, cherry pick (AID 743444); type: functional;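 note: transfected HEK 293 cells stimulated with alpha-MSH peptide; potency of inhibitors of the alpha-MSH evoked signal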
[2] = Luminescence Cell-Based Dose Response HTS to Identify Inhibitors of 5'UTR Stem-Loop Driven Prion Protein mRNA Translation in H4 Neuroglioblastoma Cells. [Related pubchem assays: 1827 (Project Summary), 1813 (Primary HTS)]; type: functional
[3] = LGR2 antagonists, dose response, cell-based, HEK293, CRE-luciferase reporter, cherry pick, set 2 (AID 743343); type: functional;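 note: transfected cells were stimulated with diluted bursicon conditioned medium after compound addition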
[4] = inhibitors of SNCA 5'UTR-driven reporter translation, confirmation, H4 neuroglioma cells, luminescence (AID 1988); type: functional, cell-based
[5] = HepG2 cell cytotoxicity, dose response, cytotoxicity control, plate reader, cherry-pick, antagonist series (AID 743416); type: functional, cell-based
[6] = inhibitors of firefly luciferase expression or activity, dose response, H4 neuroglioma cells, luminescence (AID 1990); type: functional, cell-based
[7] = target: Beta-galactosidase (Escherichia coli, UniProt Q8VNN2); experiment: Dose response counterscreen for EBI2 assay utilizing the enzyme, b-galactosidase.; type: functional
Chain of Beta-galactosidase (Q8VNN2 whole entry): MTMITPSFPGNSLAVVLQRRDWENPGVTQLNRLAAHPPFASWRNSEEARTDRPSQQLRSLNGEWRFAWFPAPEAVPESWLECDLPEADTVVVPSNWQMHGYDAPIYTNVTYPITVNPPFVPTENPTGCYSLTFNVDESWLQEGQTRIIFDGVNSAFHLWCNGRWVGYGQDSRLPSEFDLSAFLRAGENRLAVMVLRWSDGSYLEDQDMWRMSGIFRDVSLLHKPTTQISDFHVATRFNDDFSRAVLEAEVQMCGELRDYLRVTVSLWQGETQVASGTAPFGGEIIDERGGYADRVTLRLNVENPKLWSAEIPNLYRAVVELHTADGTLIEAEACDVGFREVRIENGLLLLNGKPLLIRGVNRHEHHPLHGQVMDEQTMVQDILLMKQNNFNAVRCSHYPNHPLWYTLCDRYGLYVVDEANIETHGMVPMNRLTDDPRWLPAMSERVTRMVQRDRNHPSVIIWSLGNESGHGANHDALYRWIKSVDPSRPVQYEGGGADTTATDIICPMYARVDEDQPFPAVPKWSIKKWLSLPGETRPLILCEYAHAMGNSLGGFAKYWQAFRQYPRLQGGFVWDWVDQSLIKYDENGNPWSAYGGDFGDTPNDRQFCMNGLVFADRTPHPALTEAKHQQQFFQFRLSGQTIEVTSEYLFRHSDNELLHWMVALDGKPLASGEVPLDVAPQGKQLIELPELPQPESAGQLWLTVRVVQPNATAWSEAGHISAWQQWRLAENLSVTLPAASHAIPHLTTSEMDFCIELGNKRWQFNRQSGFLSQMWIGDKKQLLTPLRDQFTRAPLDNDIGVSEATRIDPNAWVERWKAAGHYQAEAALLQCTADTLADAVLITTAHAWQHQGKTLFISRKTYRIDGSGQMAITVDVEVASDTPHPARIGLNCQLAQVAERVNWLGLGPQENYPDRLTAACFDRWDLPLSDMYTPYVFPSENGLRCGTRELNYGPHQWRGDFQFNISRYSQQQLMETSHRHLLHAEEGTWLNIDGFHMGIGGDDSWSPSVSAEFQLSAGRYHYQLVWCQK

[8] = HepG2 cell cytotoxicity, dose response, cytotoxicity control, plate reader, dry powder samples (AID 1159569); type: functional, cell-based;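 note: inhibitor potency with signal falling toward the positive control level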
[9] = P. falciparum ATP4 D1247Y mutant growth inhibitors, dose response, NITD609-resistant line, SYBR Green, dry powder (AID 1159571); type: functional, cell-based;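 note: parasites synchronized at ring stage by sorbitol before testing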
[10] = inhibitors of HIV Env-driven cell fusion, dose response, cherry-pick (AID 652057); type: functional, cell-based
[11] = inhibitors of clade B AD8 Env fusion, dose response, cell-based, cherry-pick (AID 652062); type: functional;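 note: luciferase signal from cell-cell fusion driven by HIV-1 clade B AD8 Env; potency is for inhibitors of fusion seen as a drop in luminescence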
[12] = P. falciparum 3D7-ScDHODH growth inhibitors, dose response, SYBR Green, dry powder samples (AID 1159570); type: functional, cell-based;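 note: parasite growth measured after 72 hours of compound exposure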
[13] = target: Paired box protein Pax-8 (Homo sapiens, UniProt Q06710); experiment: inhibitors of PAX8-driven TPO luciferase reporter, dose response, RMG-I cells, cherry-pick (AID 687027); type: functional, cell-based;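 note: luciferase reporter driven by Pax8 target thyroperoxidase promoter measured by SteadyGlo luminescence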
Chain of Paired box protein Pax-8 (Q06710 whole entry, the tested form may be a part): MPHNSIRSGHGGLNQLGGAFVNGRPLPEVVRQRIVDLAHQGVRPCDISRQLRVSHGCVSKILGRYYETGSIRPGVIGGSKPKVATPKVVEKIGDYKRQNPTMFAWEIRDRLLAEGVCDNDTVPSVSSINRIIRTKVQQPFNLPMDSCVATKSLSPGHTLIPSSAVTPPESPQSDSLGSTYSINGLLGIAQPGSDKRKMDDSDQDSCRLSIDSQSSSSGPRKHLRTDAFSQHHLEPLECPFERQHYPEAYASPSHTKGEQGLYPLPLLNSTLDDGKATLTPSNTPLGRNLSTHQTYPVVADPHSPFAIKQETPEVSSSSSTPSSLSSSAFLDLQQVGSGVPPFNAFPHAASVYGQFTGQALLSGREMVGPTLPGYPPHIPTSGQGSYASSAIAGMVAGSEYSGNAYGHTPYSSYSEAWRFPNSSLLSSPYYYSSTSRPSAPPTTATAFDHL

[14] = ZM109 Env clade C HIV-1 fusion inhibitors, dose response, HeLa effector, CEM target cells, luciferase, cherry-pick (AID 652058); type: functional, cell-based
[15] = P. falciparum Dd2 growth inhibitors, dose response, SYBR Green, dry powder samples (AID 1159566); type: functional, cell-based;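 note: potency for growth inhibition with lower SYBR green DNA signal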
[16] = P. falciparum Dd2 growth inhibitors, dose response, SYBR Green, cherry-picked samples (AID 1159567); type: functional, cell-based
[17] = A549 cell cytotoxicity, dose response, cytotoxicity control, plate reader, cherry-pick, antagonist series (AID 743412); type: functional, cell-based
[18] = HepG2 cell cytotoxicity, dose response, cytotoxicity control, cherry-picked samples (AID 1159577); type: functional, cell-based

SMILES	AC50 [8]	AC50 [9]	AC50 [12]	AC50 [15]	AC50 [16]	other results
C=CCN1CCN(C(=O)CCCc2ccccc2)CC1	–	–	–	–	–	AC50 [1]: 8.87 µM (active); EC50 [2]: 6.53 µM (active); AC50 [3]: 5.97 µM (active); EC50 [4]: 3.79 µM (active); AC50 [5]: > 52 µM (inactive); EC50 [6]: 7.4 µM (inconclusive)
CCN1CCN(C(=O)/C=C/c2ccc(C(C)C)cc2)CC1	–	–	–	–	–	IC50 [7]: > 80 µM (inactive)
C[C@H](CO)N1C[C@H](C)[C@@H](CN(C)C(=O)Nc2ccc(F)cc2)OCc2ccccc2-c2c(n(C)c3ccccc23)C1=O	46.8 µM (active)	0.397 µM (active)	0.662 µM (active)	0.348 µM (active)	0.907 µM (active)	AC50 [10]: < 0.26 µM (active); AC50 [11]: < 0.26 µM (active); AC50 [13]: 24.6 µM (active); AC50 [14]: < 0.26 µM (active)
CO[C@@H]1CN(C)C(=O)c2cc(NC(C)=O)ccc2OC[C@@H](C)N(Cc2ccc(F)cc2)C[C@@H]1C	–	–	–	–	–	AC50 [1]: 10.7 µM (active); AC50 [3]: 42.9 µM (active); AC50 [17]: > 47 µM (inactive)
N#Cc1ccc(-c2ccc([C@H]3[C@@H]4CN(C(=O)C5CCCCC5)C[C@H]3N4)cc2)cc1	42.9 µM (active)	4.16 µM (active)	3.78 µM (active)	3.47 µM (active)	2.2 µM (active)	AC50 [18]: 24.1 µM (active)
COc1ccc2c3c([nH]c2c1)[C@H](CO)N(C(=O)Nc1ccc(F)cc1)CC31CCN(S(=O)(=O)c2ccccc2)CC1	48.9 µM (active)	0.417 µM (active)	2.14 µM (active)	1.3 µM (active)	0.909 µM (active)	–
C[C@H]1CN([C@@H](C)CO)C(=O)c2c(c3ccccc3n2C)-c2ccccc2CO[C@H]1CN(C)S(=O)(=O)c1ccc(Cl)cc1	41.2 µM (active)	0.154 µM (active)	0.134 µM (active)	0.108 µM (active)	0.396 µM (active)	–
